Reference: patent publication US12624044B2, “SMARCA degraders and uses thereof” (Kymera Therapeutics, Inc., priority 2019, dated 2026)

What follows are compounds tested against T1, SMARCA4 (Homo sapiens, UniProt P51532) (assay: SMARCA4 Western blot MV4-11 degradation). Conditions: MV4-11, MV4-11 cells, 24 h, read-out: SMARCA4 WB MV411 degradation 24 h: Average Dmax %.
T1 construct: SMARCA2 and SMARCA4 protein degradation in MV4-11 cells; endogenous in cells; host or cells: MV4-11
Format: cell-based
Protocol: Cells were seeded into 6-well plates (MV4-11: 4×10^6 cells/well/1 ml) and 1 ml of 2× compound solution was added into the well to make the final concentration and the plates were mixed well and incubated for 24 hours (No cytotoxicity was observed). The cell were collected with media and spun at 3000 rpm for 5 minutes. The supernatant was aspirated and the well and the cells were washed with cold PBS once and combined for centrifugation again; the supernatant aspirated again. 200 ul pre-chilled RIPAlysis buffer (Boston BioProducts BP-115D) with protease/phosphatase inhibitor (Roche 05892791001/Roche 04906837001) was directly added into the tube to lyze the cells for 20 minutes on ice. The cell lysate were collected into EP tubes and spun at 13000 rpm for 20 minutes and 72 ul supernatant was transferred to a fresh EP tube containing 18 ul of 5× loading buffer (Beyotime Bio P0015) to make the loading samples. The samples were heated to 100° C. for 10 minutes and cooled to RT and microcentrifuged. 20 ul of samples were loaded onto SDS-PAGE gel (Novex, WG1402BOX) and the gel was run at 80 V for 20 minutes and 120 V for 1.5 hours. The samples were electrotransfer to a NC membrane using wet-transfer method with 250 mA for 2.5 hours. The membrane was blocked with LICOR blocking buffer (LI-COR, 927-50000) for 1 hour. The membrane was washed three times with TBST (CST #9997S), 5 minutes each. Incubation was performed with primary antibody prepared in blocking buffer with 0.1% Tween-20 (Solarbio, P8220) at 4° C. overnight (Anti-SMARCA2/BRM antibody (ab15597) 1:500; Anti-BRG1 antibody [EPR3912] (ab108318) 1:1000; Rabbit anti-Baf180 antibody [EPR15860] (Abcam, ab196022) 1:1000; mouse anti-beta-Actin (8H10D10) (CST #3700) 1:10000). The membrane was washed three times with TBST, 5 minutes each. Incubation with secondary antibody was performed for 1 hour at RT (anti-rabbit IgG (Licor, 926-32211) 1:5000; anti-mouse IgG (LI-COR, 926-68070) 1:5000). The membrane was washed three times with TBST, 5 minutes each and lastly the LiCOR was read.
The letter codes for the percentage of SMARCA degradation after 24 hours (Dmax %) include: A (>90% degradation), B (>70-90% degradation), C (50-70% degradation), and D (<50% degradation).

T1 sequence (P51532 whole entry): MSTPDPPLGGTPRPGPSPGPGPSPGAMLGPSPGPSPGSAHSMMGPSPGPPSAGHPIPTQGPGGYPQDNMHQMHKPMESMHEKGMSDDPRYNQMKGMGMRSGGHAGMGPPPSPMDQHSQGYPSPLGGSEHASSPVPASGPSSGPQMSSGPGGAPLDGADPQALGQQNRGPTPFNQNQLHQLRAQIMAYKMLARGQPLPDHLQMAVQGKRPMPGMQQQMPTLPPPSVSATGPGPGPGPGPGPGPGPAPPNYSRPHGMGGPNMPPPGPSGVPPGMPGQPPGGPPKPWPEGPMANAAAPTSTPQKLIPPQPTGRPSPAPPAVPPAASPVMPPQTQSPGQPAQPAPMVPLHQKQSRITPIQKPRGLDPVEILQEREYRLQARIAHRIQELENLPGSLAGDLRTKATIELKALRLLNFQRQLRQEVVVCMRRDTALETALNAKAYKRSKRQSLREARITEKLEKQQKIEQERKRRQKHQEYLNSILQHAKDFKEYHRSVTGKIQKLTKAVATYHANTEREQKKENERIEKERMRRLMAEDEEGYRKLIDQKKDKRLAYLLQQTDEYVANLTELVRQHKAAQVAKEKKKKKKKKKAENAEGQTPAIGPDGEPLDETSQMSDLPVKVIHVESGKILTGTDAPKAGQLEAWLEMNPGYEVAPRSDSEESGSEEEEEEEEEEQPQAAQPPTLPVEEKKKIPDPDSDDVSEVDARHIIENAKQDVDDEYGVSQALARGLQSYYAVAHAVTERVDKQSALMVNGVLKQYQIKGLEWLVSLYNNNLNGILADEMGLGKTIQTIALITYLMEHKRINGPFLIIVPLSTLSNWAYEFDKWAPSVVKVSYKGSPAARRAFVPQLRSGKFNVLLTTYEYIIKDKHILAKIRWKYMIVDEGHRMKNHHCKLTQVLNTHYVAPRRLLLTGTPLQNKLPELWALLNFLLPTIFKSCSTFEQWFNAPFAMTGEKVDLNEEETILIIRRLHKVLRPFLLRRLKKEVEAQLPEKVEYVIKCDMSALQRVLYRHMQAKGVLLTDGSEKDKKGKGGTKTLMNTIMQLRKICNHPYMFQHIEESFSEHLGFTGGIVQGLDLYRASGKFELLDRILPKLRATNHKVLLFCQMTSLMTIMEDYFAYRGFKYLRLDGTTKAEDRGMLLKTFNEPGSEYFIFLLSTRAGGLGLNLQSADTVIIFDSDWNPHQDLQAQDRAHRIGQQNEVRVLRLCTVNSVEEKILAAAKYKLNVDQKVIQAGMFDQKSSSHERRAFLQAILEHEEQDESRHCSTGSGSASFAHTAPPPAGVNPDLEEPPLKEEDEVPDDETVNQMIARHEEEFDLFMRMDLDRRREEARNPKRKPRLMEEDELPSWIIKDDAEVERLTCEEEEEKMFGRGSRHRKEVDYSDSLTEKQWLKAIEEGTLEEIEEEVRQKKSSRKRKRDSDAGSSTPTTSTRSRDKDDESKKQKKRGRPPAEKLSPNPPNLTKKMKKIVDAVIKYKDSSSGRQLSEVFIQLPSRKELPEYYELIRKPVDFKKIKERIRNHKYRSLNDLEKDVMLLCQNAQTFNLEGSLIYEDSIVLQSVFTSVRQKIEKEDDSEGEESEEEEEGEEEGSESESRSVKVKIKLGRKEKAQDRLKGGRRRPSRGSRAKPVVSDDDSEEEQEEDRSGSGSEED

SMILES | Dmax [%]
Cc1ncsc1-c1ccc(CNC(=O)[C@@H]2C[C@@H](O)CN2C(=O)[C@@H](NC(=O)CCCCCN2CCCC(n3cc(-c4cc(-c5ccccc5O)nnc4N)cn3)C2)C(C)(C)C)cc1 (stereo partly shown) [I-456] | < 50
Cn1c(=O)n(C2CCC(=O)NC2=O)c2ccc(CCCN3CCC(c4cnc(N5CCN(c6cc(-c7ccccc7O)nnc6N)CC5)nc4)CC3)cc21 (stereo not shown) [I-288] | > 90
Cn1c(=O)n(C2CCC(=O)NC2=O)c2cccc(CCCN3CCCC(c4cnc(N5C6CCC5CN(c5cc(-c7ccccc7O)nnc5N)C6)nc4)C3)c21 (stereo not shown) [I-292] | > 90
Cn1c(=O)n(C2CCC(=O)NC2=O)c2ccc(C#CCCNC(=O)Cc3cnc(N4C5CCC4CN(c4cc(-c6ccccc6O)nnc4N)C5)nc3)cc21 (stereo not shown) [I-295] | < 50

Continued, values first:

Dmax [%] | SMILES
< 50 | Cc1ncsc1-c1ccc(CNC(=O)[C@@H]2C[C@@H](O)CN2C(=O)[C@@H](NC(=O)CN2CCN(Cc3ccc(-c4cc(-c5ccccc5O)nnc4N)cc3)CC2)C(C)(C)C)cc1 [I-473]
< 50 | Cc1ncsc1-c1ccc(CNC(=O)[C@@H]2C[C@@H](O)CN2C(=O)[C@@H](NC(=O)CCCN2CCC(n3cc(-c4cc(-c5ccccc5O)nnc4N)cn3)CC2)C(C)(C)C)cc1 [I-459]
< 50 | Cc1ncsc1-c1ccc(CNC(=O)[C@@H]2C[C@@H](O)CN2C(=O)[C@@H](NC(=O)CCCN2CCC(Cn3cc(-c4cc(-c5ccccc5O)nnc4N)cn3)CC2)C(C)(C)C)cc1 [I-467]

Same assay, conditions: MV4-11 cells, 24 h, read-out: SMARCA4 WB MV411 degradation 24 h: Average external-Abs DC50

SMILES | DC50 [nM]
Cc1ncsc1-c1ccc(CNC(=O)[C@@H]2C[C@@H](O)CN2C(=O)[C@@H](NC(=O)CCCCCN2CCCC(n3cc(-c4cc(-c5ccccc5O)nnc4N)cn3)C2)C(C)(C)C)cc1 (stereo partly shown) [I-456] | 100 to 500
Cn1c(=O)n(C2CCC(=O)NC2=O)c2ccc(CCCN3CCC(c4cnc(N5CCN(c6cc(-c7ccccc7O)nnc6N)CC5)nc4)CC3)cc21 (stereo not shown) [I-288] | < 100
Cn1c(=O)n(C2CCC(=O)NC2=O)c2cccc(CCCN3CCCC(c4cnc(N5C6CCC5CN(c5cc(-c7ccccc7O)nnc5N)C6)nc4)C3)c21 (stereo not shown) [I-292] | < 100
Cn1c(=O)n(C2CCC(=O)NC2=O)c2ccc(C#CCCNC(=O)Cc3cnc(N4C5CCC4CN(c4cc(-c6ccccc6O)nnc4N)C5)nc3)cc21 (stereo not shown) [I-295] | < 100

Continued, values first:

DC50 [nM] | SMILES
100 to 500 | Cc1ncsc1-c1ccc(CNC(=O)[C@@H]2C[C@@H](O)CN2C(=O)[C@@H](NC(=O)CN2CCN(Cc3ccc(-c4cc(-c5ccccc5O)nnc4N)cc3)CC2)C(C)(C)C)cc1 [I-473]
100 to 500 | Cc1ncsc1-c1ccc(CNC(=O)[C@@H]2C[C@@H](O)CN2C(=O)[C@@H](NC(=O)CCCN2CCC(n3cc(-c4cc(-c5ccccc5O)nnc4N)cn3)CC2)C(C)(C)C)cc1 [I-459]
100 to 500 | Cc1ncsc1-c1ccc(CNC(=O)[C@@H]2C[C@@H](O)CN2C(=O)[C@@H](NC(=O)CCCN2CCC(Cn3cc(-c4cc(-c5ccccc5O)nnc4N)cn3)CC2)C(C)(C)C)cc1 [I-467]

The compounds below were run against SMARCA2 (Homo sapiens, UniProt P51531) (assay: MSD SMARCA2 degradation in NCI-H1299 cell line (24 h)). Conditions: NCI-H1299, NCI-H1299 cells.
Format: cell-based
Design: HC: NCI-H1299 cells treated with DMSO; host or cells: NCI-H1299
In short: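 SMARCA2 measured by MSD electrochemiluminescence (primary 0.3 ug/ml, secondary 1 ug/ml) on lysates from NCI-H1299 cells exposed to compounds for 24 h across nine 3-fold dilutions. Signal scaled from A2780 cells (no SMARCA2) to DMSO-treated H1299 controls, and maximal degradation after 24 h reported in letter categories.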

Sequence of SMARCA2 (P51531 whole entry): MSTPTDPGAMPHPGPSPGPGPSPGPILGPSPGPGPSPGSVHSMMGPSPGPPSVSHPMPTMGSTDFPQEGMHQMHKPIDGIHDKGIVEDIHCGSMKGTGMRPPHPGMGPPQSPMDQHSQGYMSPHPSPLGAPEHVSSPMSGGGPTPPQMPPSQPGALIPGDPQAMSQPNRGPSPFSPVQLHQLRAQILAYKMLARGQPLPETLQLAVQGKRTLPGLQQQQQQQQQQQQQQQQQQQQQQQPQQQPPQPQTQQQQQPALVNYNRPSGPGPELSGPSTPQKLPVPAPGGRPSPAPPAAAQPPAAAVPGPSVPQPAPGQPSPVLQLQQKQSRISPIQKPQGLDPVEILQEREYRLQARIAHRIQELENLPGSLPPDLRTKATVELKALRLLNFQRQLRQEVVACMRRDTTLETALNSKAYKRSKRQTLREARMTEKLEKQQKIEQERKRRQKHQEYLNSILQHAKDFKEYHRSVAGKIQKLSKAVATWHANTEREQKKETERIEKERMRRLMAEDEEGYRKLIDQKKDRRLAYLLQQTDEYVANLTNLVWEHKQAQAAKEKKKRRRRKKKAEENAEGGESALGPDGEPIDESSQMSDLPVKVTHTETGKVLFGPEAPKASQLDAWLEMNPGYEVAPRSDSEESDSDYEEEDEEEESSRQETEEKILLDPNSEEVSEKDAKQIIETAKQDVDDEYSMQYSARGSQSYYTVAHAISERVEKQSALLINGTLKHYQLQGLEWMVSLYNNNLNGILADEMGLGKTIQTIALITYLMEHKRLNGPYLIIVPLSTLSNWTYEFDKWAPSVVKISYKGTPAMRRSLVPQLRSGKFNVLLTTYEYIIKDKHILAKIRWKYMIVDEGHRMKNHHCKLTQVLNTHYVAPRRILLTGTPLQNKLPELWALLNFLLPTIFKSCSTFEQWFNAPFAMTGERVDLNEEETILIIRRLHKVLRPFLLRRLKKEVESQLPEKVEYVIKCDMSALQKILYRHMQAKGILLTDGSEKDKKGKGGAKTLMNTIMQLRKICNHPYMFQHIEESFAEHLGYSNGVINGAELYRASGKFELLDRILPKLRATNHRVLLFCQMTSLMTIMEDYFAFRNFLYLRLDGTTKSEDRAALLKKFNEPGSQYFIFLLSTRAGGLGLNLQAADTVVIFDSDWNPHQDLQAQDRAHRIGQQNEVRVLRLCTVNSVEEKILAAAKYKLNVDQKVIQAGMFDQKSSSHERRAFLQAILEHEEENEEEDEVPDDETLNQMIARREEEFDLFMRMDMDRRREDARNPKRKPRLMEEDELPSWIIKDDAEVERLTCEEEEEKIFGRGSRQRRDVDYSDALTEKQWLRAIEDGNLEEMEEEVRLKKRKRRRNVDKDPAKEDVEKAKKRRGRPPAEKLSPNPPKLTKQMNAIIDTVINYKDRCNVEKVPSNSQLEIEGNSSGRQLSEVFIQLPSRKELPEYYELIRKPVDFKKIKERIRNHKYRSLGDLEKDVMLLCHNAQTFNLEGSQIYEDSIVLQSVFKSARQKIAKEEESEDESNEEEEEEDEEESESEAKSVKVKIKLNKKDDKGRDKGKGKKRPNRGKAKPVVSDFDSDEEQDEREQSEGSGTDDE

SMILES | Dmax [%]
Cc1ncsc1-c1ccc(CNC(=O)[C@@H]2C[C@@H](O)CN2C(=O)[C@@H](NC(=O)CCCCCN2CCCC(n3cc(-c4cc(-c5ccccc5O)nnc4N)cn3)C2)C(C)(C)C)cc1 (stereo partly shown) [I-456] | < 50
Cn1c(=O)n(C2CCC(=O)NC2=O)c2ccc(CCCN3CCC(c4cnc(N5CCN(c6cc(-c7ccccc7O)nnc6N)CC5)nc4)CC3)cc21 (stereo not shown) [I-288] | > 90
Cn1c(=O)n(C2CCC(=O)NC2=O)c2cccc(CCCN3CCCC(c4cnc(N5C6CCC5CN(c5cc(-c7ccccc7O)nnc5N)C6)nc4)C3)c21 (stereo not shown) [I-292] | > 90
Cn1c(=O)n(C2CCC(=O)NC2=O)c2ccc(C#CCCNC(=O)Cc3cnc(N4C5CCC4CN(c4cc(-c6ccccc6O)nnc4N)C5)nc3)cc21 (stereo not shown) [I-295] | < 50

The remaining lines, values ahead:

Dmax [%] | SMILES
< 50 | Cc1ncsc1-c1ccc(CNC(=O)[C@@H]2C[C@@H](O)CN2C(=O)[C@@H](NC(=O)CN2CCN(Cc3ccc(-c4cc(-c5ccccc5O)nnc4N)cc3)CC2)C(C)(C)C)cc1 [I-473]
< 50 | Cc1ncsc1-c1ccc(CNC(=O)[C@@H]2C[C@@H](O)CN2C(=O)[C@@H](NC(=O)CCCN2CCC(n3cc(-c4cc(-c5ccccc5O)nnc4N)cn3)CC2)C(C)(C)C)cc1 [I-459]
< 50 | Cc1ncsc1-c1ccc(CNC(=O)[C@@H]2C[C@@H](O)CN2C(=O)[C@@H](NC(=O)CCCN2CCC(Cn3cc(-c4cc(-c5ccccc5O)nnc4N)cn3)CC2)C(C)(C)C)cc1 [I-467]

Same assay, conditions: NCI-H1299 cells, read-out: SMARCA2 MSD H1299 degradation 24 h: External Abs-DC50

SMILES | DC50 [nM]
Cc1ncsc1-c1ccc(CNC(=O)[C@@H]2C[C@@H](O)CN2C(=O)[C@@H](NC(=O)CCCCCN2CCCC(n3cc(-c4cc(-c5ccccc5O)nnc4N)cn3)C2)C(C)(C)C)cc1 (stereo partly shown) [I-456] | > 1000
Cn1c(=O)n(C2CCC(=O)NC2=O)c2ccc(CCCN3CCC(c4cnc(N5CCN(c6cc(-c7ccccc7O)nnc6N)CC5)nc4)CC3)cc21 (stereo not shown) [I-288] | < 100
Cn1c(=O)n(C2CCC(=O)NC2=O)c2cccc(CCCN3CCCC(c4cnc(N5C6CCC5CN(c5cc(-c7ccccc7O)nnc5N)C6)nc4)C3)c21 (stereo not shown) [I-292] | < 100
Cn1c(=O)n(C2CCC(=O)NC2=O)c2ccc(C#CCCNC(=O)Cc3cnc(N4C5CCC4CN(c4cc(-c6ccccc6O)nnc4N)C5)nc3)cc21 (stereo not shown) [I-295] | > 1000

Results, then the compound that gave them:

DC50 [nM] | SMILES
100 to 500 | Cc1ncsc1-c1ccc(CNC(=O)[C@@H]2C[C@@H](O)CN2C(=O)[C@@H](NC(=O)CN2CCN(Cc3ccc(-c4cc(-c5ccccc5O)nnc4N)cc3)CC2)C(C)(C)C)cc1 [I-473]
100 to 500 | Cc1ncsc1-c1ccc(CNC(=O)[C@@H]2C[C@@H](O)CN2C(=O)[C@@H](NC(=O)CCCN2CCC(n3cc(-c4cc(-c5ccccc5O)nnc4N)cn3)CC2)C(C)(C)C)cc1 [I-459]
100 to 500 | Cc1ncsc1-c1ccc(CNC(=O)[C@@H]2C[C@@H](O)CN2C(=O)[C@@H](NC(=O)CCCN2CCC(Cn3cc(-c4cc(-c5ccccc5O)nnc4N)cn3)CC2)C(C)(C)C)cc1 [I-467]
